The values that follow come from ChEMBL document CHEMBL1142054, “QSAR-by-NMR: quantitative insights into structural determinants for binding affinity by analysis of 1H/15N chemical shift differences in MMP-3 ligands” (Bioorg Med Chem Lett, 2005).

Assay [1] concerns the target T1, Stromelysin-1 (Homo sapiens, UniProt P08254). The experiment in a line: (§1) Binding affinity for human Matrix metalloprotease-3.
Target sequence in this assay (P08254 100-477 limits assumed): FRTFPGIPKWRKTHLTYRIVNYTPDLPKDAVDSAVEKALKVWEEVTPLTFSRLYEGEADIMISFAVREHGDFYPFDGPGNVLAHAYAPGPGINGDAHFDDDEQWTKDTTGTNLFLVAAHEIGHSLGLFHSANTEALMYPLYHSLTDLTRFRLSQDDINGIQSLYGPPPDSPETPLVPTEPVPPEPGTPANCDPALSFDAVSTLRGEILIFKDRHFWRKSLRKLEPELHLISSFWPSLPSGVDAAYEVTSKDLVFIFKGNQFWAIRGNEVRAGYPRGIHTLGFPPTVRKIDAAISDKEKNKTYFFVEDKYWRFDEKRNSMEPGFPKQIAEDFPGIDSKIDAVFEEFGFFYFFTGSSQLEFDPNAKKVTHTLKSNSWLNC
A further assay concerns the target Neutrophil collagenase (Homo sapiens, UniProt P22894). The experiment in a line: Binding affinity for human Matrix metalloprotease-8.
Assay [2] concerns the target T1, Stromelysin-1. The assay is described as §1. The source holds these as a separate data set.
Target sequence in this assay (P08254 whole entry): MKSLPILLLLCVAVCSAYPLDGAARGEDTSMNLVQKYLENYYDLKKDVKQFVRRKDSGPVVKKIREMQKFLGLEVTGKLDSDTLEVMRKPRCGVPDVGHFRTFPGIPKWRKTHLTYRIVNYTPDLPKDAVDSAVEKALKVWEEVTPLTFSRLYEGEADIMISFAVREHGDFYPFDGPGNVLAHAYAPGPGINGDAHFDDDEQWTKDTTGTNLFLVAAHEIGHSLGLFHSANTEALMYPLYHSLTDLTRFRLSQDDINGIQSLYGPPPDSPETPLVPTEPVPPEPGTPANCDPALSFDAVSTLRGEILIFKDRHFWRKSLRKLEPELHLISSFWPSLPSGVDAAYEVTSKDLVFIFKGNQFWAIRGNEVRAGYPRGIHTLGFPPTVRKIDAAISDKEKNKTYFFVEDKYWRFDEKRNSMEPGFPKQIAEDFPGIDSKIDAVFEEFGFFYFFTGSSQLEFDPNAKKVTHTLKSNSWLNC

In general, IC50 refers to the concentration that inhibits the measured activity by half. Low values mean greater potency, high ones weaker potency.

Chain of Neutrophil collagenase (P22894 whole entry): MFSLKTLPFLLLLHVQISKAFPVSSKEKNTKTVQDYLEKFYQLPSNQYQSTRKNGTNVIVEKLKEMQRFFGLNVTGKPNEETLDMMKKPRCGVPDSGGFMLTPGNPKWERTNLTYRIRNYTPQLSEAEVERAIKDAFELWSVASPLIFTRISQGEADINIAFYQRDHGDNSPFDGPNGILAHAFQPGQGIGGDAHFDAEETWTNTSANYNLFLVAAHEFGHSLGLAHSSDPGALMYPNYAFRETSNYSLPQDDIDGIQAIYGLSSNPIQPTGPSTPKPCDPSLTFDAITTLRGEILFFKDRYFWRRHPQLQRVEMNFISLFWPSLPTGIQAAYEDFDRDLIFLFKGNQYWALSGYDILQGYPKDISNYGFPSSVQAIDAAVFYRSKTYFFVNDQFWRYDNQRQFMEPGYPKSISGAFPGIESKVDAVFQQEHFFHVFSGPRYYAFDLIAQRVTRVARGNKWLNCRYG

At Stromelysin-1 [1], `O=C(O)[C@H]1Cc2ccccc2CC1S(=O)(=O)c1ccc(F)cc1` (some centres not stated) gave a Concentration of 400 nM.

`O=C(O)[C@H]1Cc2ccccc2CC1S(=O)(=O)c1ccc(Cl)cc1` (some centres not stated) showed a Concentration on Stromelysin-1 [1] of 100 nM.

As to `O=C(O)[C@H]1Cc2ccccc2CC1S(=O)(=O)c1ccc(Oc2ccccc2)cc1` (some centres not stated), on Stromelysin-1 [1], the Concentration came out at 200 nM.

At Stromelysin-1 [1], `N#Cc1ccc(-c2ccc(S(=O)(=O)C3Cc4ccccc4C[C@@H]3C(=O)O)cc2)cc1` (some centres not stated) had a Concentration of 1000 nM.

For the compound `O=C(O)[C@H]1Cc2ccccc2CC1S(=O)(=O)c1ccc(-c2ccccc2)cc1` (some centres not stated), the values for the IC50 on Neutrophil collagenase and at Stromelysin-1 [2] were 10 nM and 500 nM, respectively.

At Stromelysin-1 [1], `O=C(O)[C@H]1Cc2ccccc2CC1S(=O)(=O)c1ccc(CCc2ccccc2)cc1` (some centres not stated) displayed a Concentration of 50 nM.
